Source: US20240041042A1, “1-(PYRIDYL)-5-AZINYLPYRAZOLE DERIVATIVES, AND THEIR USE FOR CONTROL OF UNDESIRED PLANT GROWTH” (Bayer Aktiengesellschaft, priority 2020, published 2024)

Experiments:
Format in all cases: in vivo
[1] = test system: Pharbitis purpurea (PHBPU); assay: Post-emergence herbicidal action against PHBPU
Outline: (§1)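 Doses of 320 g/ha or lower, suffixes a, b and c marking different dosages, were applied post-emergence at the one-leaf stage in 600 l/ha water with 0.5% additive. Damage was assessed visually after about 3 weeks in the greenhouse.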

[2] = test system: Echinochloa crus-galli (ECHCG); assay: Pre-emergence herbicidal action against ECHCG
Outline: (§2)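 Seeds sown in pots and covered with soil; WP or EC formulations sprayed onto the soil surface at 600 l/ha water with 0.5% additive, at 320 g/ha or lower. Greenhouse growth for about 3 weeks, then visual scoring as % effect against untreated controls (100% = plants dead).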

[3] = test system: Amaranthus retroflexus (AMARE); assay: Post-emergence herbicidal action against AMARE
Outline: as §1

Viola tricolor (VIOTR) = assay: Pre-emergence herbicidal action against VIOTR
Outline: as §2

[4] = test system: Alopecurus myosuroides (ALOMY); assay: Post-emergence herbicidal action against ALOMY; details: visual rating about 3 weeks after treatment vs untreated controls (100% = plants have died, 0% = like control plants)
Outline: as §1

[5] = test system: Echinochloa crus-galli (ECHCG); assay: Post-emergence herbicidal action against ECHCG
Outline: as §1

[6] = test system: Matricaria inodora (MATIN); assay: Post-emergence herbicidal action against MATIN
Outline: as §1

[7] = test system: Abutilon theophrasti (ABUTH); assay: Post-emergence herbicidal action against ABUTH; details: visual rating about 3 weeks after treatment vs untreated controls (100% = plants have died, 0% = like control plants)
Outline: as §1

Avena fatua (AVEFA) = assay: Post-emergence herbicidal action against AVEFA; details: visual rating about 3 weeks after treatment
Outline: as §1

[8] = test system: Abutilon theophrasti (ABUTH); assay: Pre-emergence herbicidal action against ABUTH; details: 100% = plants have died
Outline: as §2

[9] = 80 g/ha, visual rating about 3 weeks after treatment vs untreated controls (100% = plants have died, 0% = like control plants)
[10] = 320 g/ha, visual rating about 3 weeks after treatment
[11] = Dosage column 320 g/ha (title prints 3200 g/ha), scored visually after about 3 weeks

Compound	Post-emergence action against PHBPU in % ([1]; dosage 80 g/ha)	Post-emergence action against PHBPU in % ([1]; dosage 320 g/ha)	Pre-emergence action against ECHCG in % ([2]; dosage 320 g/ha)	Post-emergence action against AMARE in % [3, 9]	Post-emergence action against AMARE in % [3, 10]	Pre-emergence action against VIOTR in % (Viola tricolor (VIOTR); 320 g/ha, Viola tricolor)	Pre-emergence action against VIOTR in % (Viola tricolor (VIOTR); dosage 80 g/ha)	Post-emergence action against ALOMY in % ([4]; 80 g/ha)	Post-emergence action against ALOMY in % ([4]; 320 g/ha)	Post-emergence action against ECHCG in % ([5]; dosage 80 g/ha)	Post-emergence action against ECHCG in % ([5]; dosage 320 g/ha)	Post-emergence action against MATIN in % ([6]; dosage 80 g/ha)	Post-emergence action against MATIN in % ([6]; dosage 320 g/ha)	Post-emergence action against ABUTH in % ([7]; 80 g/ha)	Post-emergence action against ABUTH in % ([7]; 320 g/ha)	Post-emergence action against AVEFA in % (Avena fatua (AVEFA); 320 g/ha)	Pre-emergence action against ECHCG in % ([2]; dosage 80 g/ha)	Post-emergence action against AVEFA in % (Avena fatua (AVEFA); 80 g/ha)	Pre-emergence action against ABUTH ([8]; 80 g/ha, scored visually after about 3 weeks vs untreated controls, 0% = like control plants)	Pre-emergence action against ABUTH [8, 11]
CCOC(=O)COc1nn(-c2ccccn2)c(-c2ccc(F)nc2)c1Br [Example I-02]	90%	100%	100%	80%	80%	100%	100%	80%	100%	90%	90%	80%	80%	80%	80%	80%				
O=C(O)COc1nn(-c2ncccc2F)c(-c2cncc(F)c2)c1C1CC1 [Example I-175]	80%	90%	100%	80%	80%	100%	100%	90%	90%	80%	80%			80%	80%	80%	100%	80%	80%	90%
O=C(O)COc1nn(-c2nc(F)ccc2F)c(-c2cncc(F)c2)c1C1CC1 [Example I-148]	80%	90%	100%			100%	100%	80%	90%	80%	80%	80%	80%			80%	90%			
C[C@@H](Oc1nn(-c2ncccc2F)c(-c2ccc(F)nc2)c1Br)C(=O)O [Example I-10]			90%			100%	100%	100%	100%		80%				80%	90%	80%	80%		80%
CCOC(=O)COc1nn(-c2ncccc2F)c(-c2cncc(F)c2)c1C1CC1 [Example I-174]	80%	90%	100%	80%	80%	100%	100%	90%	90%	80%	80%			80%	80%	90%	100%	80%		90%
O=C(O)COc1nn(-c2ccccn2)c(-c2cncnc2)c1Br [Example I-66]		80%	100%	80%	90%	100%	90%	100%	100%	80%	90%	80%	90%		80%	100%	80%			
CCOC(=O)COc1nn(-c2ccccn2)c(-c2ccc(F)nc2)c1Cl [Example I-85]	90%	90%	100%	90%	90%	100%	100%		100%	90%	90%	80%	90%	90%	90%	100%	100%			
COC(=O)[C@@H](C)COC(=O)COc1nn(-c2ccccn2)c(-c2cncc(F)c2)c1Br [Example I-194]	90%	90%	100%	80%	90%	100%		90%	90%	80%	80%				80%	90%	80%			80%
O=C(O)COc1nn(-c2ncccc2F)c(-c2ccc(F)nc2)c1Br [Example I-17]		80%	90%			100%	100%	90%	90%	80%	80%					80%	90%			90%
CCOC(=O)COc1nn(-c2nc(F)ccc2F)c(-c2cncc(F)c2)c1Br [Example I-193]	90%	100%	100%	80%	80%	100%	100%	90%	100%	90%	90%		80%	80%	80%	90%	90%	80%		
COC(=O)COc1nn(-c2ncccc2F)c(-c2cncc(F)c2)c1Br [Example I-16]	90%	90%	90%		80%	100%	100%	90%	90%	80%	80%		80%				90%			
